Earlier results on 1 sequence are cited in patent US20260364145A1, “MODIFIED CAVEOLIN-1 PEPTIDE FORMULATIONS AND METHODS OF MANUFACTURING AND USE THEREOF” (REIN THERAPEUTICS, INC., priority 2023, published 2026).

Conditions in all cases: cited from earlier work
In one data set the test system is fibrosis.
The subject of data set [1] is Wnt-signaling, β-catenin-mediated transcription, activation of SRC, EGFR, MEK1 and ERK-2.
Data set [2] has as its system Cav-1 interaction with SRC kinases.

In the case of DGIWKASFTTFTVTKYWFYR [CSP 20-mer], in the data set with fibrosis (animal models), the effect on fibrosis entry is reported as “prevent, limit, or reverse fibrosis in animal models”. For the same sequence, in the data set with fibrosis (in vivo), the “effect on lung aSMA, epithelial apoptosis, collagen and profibrogenic signaling” value was “reduced lung aSMA and lung epithelial apoptosis, reduced collagen deposition, and down-regulation of expression of profibrogenic signaling molecules”. Moreover, the effect on signaling result in data set [1] was “inhibition of Wnt-signaling, β-catenin-mediated transcription, activation of SRC, EGFR, MEK1 and ERK-2”. Besides, in data set [2], the “effect on Cav-1 interaction with SRC kinases” value is “interferes with Cav-1 interaction with SRC kinases”.
